{
  "source": "ChEMBL document CHEMBL6127034",
  "about": "“Design, synthesis and biological evaluation of a novel PAK1 degrader for the treatment of triple negative breast cancer” (Bioorg Med Chem, 2024)",
  "key": {"[1]": {"molecular_target": "Serine/threonine-protein kinase PAK 1 (Homo sapiens, UniProt Q13153)", "sequence (Q13153 whole entry)": "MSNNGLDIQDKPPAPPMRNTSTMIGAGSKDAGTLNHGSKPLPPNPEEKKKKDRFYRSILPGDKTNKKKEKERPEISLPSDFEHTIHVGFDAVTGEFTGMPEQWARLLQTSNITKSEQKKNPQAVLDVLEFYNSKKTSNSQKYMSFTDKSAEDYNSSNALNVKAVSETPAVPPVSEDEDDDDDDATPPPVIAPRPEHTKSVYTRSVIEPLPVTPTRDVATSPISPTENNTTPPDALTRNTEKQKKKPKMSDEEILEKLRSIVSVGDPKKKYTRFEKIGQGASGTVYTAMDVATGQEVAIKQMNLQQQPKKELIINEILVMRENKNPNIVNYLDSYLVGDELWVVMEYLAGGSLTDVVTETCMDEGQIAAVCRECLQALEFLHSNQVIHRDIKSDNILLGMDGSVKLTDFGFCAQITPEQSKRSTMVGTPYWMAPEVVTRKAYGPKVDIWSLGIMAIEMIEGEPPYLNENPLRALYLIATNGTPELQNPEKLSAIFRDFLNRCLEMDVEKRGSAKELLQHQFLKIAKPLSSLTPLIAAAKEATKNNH", "assay": "Inhibition of PAK1 (unknown origin)"}, "MDA-MB-231 [2]": {"tested_on": "MDA-MB-231", "assay": "Antiproliferative activity against human MDA-MB-231 cells", "type": "functional, cell-based"}, "MDA-MB-231 [3]": {"tested_on": "MDA-MB-231", "assay": "Antiproliferative activity against human MDA-MB-231 cells incubated for 48 hrs by MTT assay", "type": "functional, cell-based", "details": "MDA-MB-231, 48 h"}, "MDA-MB-231 [4]": {"tested_on": "MDA-MB-231", "assay": "Inhibition of cell proliferation of human MDA-MB-231 cells at 2.5 uM by crystal violet staining based colony formation assay", "type": "functional"}, "MDA-MB-231 [5]": {"tested_on": "MDA-MB-231", "assay": "Inhibition of 3D-spherioid formation of human MDA-MB-231 cells at 2.5 uM by crystal violet staining based colony formation assay", "type": "functional, cell-based"}, "MDA-MB-231 [6]": {"tested_on": "MDA-MB-231", "assay": "Inhibition of cell proliferation of human MDA-MB-231 cells at 2.5 uM by EdU staining based analysis", "type": "functional"}, "MDA-MB-231 [7]": {"tested_on": "MDA-MB-231", "assay": "Inhibition of cell proliferation of human MDA-MB-231 cells assessed as decrease in Ki-67 expression at 2.5 uM incubated for 24 hrs by immunofluorescence based analysis", "type": "functional"}, "MDA-MB-231 [8]": {"tested_on": "MDA-MB-231", "assay": "Inhibition of cell migration in human MDA-MB-231 cells at 2.5 uM incubated upto 48 hrs by wound healing assay", "type": "functional, cell-based"}, "MDA-MB-231 [9]": {"tested_on": "MDA-MB-231", "assay": "Inhibition of cell migration in human MDA-MB-231 cells at 2.5 uM incubated for 24 hrs by transwell assay", "type": "functional, cell-based"}, "MDA-MB-231 [10]": {"tested_on": "MDA-MB-231", "assay": "Induction of apoptosis in human MDA-MB-231 cells assessed as viable cells at 2.5 uM incubated for 12 to 48 hrs by Annexin V-FITC/PI staining based flow cytometry (reference value: 97.0 %)", "type": "functional", "details": "time 12-48 hrs, read-out: Activity"}, "MDA-MB-231 [11]": {"tested_on": "MDA-MB-231", "assay": "Induction of apoptosis in human MDA-MB-231 cells assessed as early apoptotic cells at 2.5 uM incubated for 12 to 48 hrs by Annexin V-FITC/PI staining based flow cytometry (reference value: 1.12 %)", "type": "functional", "details": "time 12-48 hrs"}, "MDA-MB-231 [12]": {"tested_on": "MDA-MB-231", "assay": "Induction of apoptosis in human MDA-MB-231 cells assessed as late apoptotic cells at 2.5 uM incubated for 12 to 48 hrs by Annexin V-FITC/PI staining based flow cytometry (reference value: 1.48 %)", "type": "functional", "details": "time 12-48 hrs"}, "MDA-MB-231 [13]": {"tested_on": "MDA-MB-231", "assay": "Induction of apoptosis in human MDA-MB-231 cells assessed as necrotic cells at 2.5 uM incubated for 12 to 48 hrs by Annexin V-FITC/PI staining based flow cytometry (reference value: 0.43 %)", "type": "functional", "details": "time 12-48 hrs"}},
  "note": "Calls of active or inactive are those of the source. No cut-off for these calls is given here.",
  "data": [
    {"smiles": "CNc1ncc2cc(-c3ccc(Cl)cc3Cl)c(=O)[nH]c2n1", "values": [
      {"measurement": "IC50", "setting": "[1]", "result": 0.052, "unit": "µM"},
      {"measurement": "IC50", "setting": "MDA-MB-231 [2]", "result": 28.6, "unit": "µM"},
      {"measurement": "IC50", "setting": "MDA-MB-231 [3]", "result": 28.6, "unit": "µM"}
    ]},
    {"smiles": "CCn1c(=O)c(-c2ccc(-c3cncs3)cc2Cl)cc2cnc(Nc3ccc(N4CCN(C)CC4)cc3)nc21", "values": [
      {"measurement": "IC50", "setting": "MDA-MB-231 [3]", "result": 3.23, "unit": "µM"},
      {"measurement": "inhibition", "setting": "MDA-MB-231 [4]", "result": "Active"},
      {"measurement": "inhibition", "setting": "MDA-MB-231 [5]", "result": "Active"},
      {"measurement": "inhibition", "setting": "MDA-MB-231 [6]", "result": "Active"},
      {"measurement": "inhibition", "setting": "MDA-MB-231 [7]", "result": "Active"},
      {"measurement": "inhibition", "setting": "MDA-MB-231 [8]", "result": "inactive"},
      {"measurement": "inhibition", "setting": "MDA-MB-231 [9]", "result": "Active"},
      {"measurement": "viability at 2.5 µM", "setting": "MDA-MB-231 [10]", "result": 97.2, "unit": "%"},
      {"measurement": "Activity", "setting": "MDA-MB-231 [11]", "result": 1.67, "unit": "%"},
      {"measurement": "Activity", "setting": "MDA-MB-231 [12]", "result": 1.08, "unit": "%"},
      {"measurement": "Activity", "setting": "MDA-MB-231 [13]", "result": 0.058, "unit": "%"}
    ]}
  ]
}
